We go through 28 compounds from patent US7659404B2, “Broad spectrum 2-(substituted-amino)-benzothiazole sulfonamide HIV protease inhibitors” (Tibotec Pharmaceuticals Ltd., priority 2001, dated 2010).

Structures are written as SMILES.

Experiment [1] concerns wild type virus (IIIB). Kind of experiment: HIV-AVE-MT4-MTT cellular assay, wild type virus (IIIB). The experiment is classed as cell-based. Particulars: MT4 cells, MTT; for EC50: Human immunodeficiency virus 1, IIIB, MT4, wild type virus (IIIB), read-out: HIV-AVE-MT4-MTT-IIIB-2-002 pEC50 (converted); for HIV-AVE-MT4-MTT-IIIB-2-002 pEC50: wild type virus (IIIB). The procedure: (§1) HIV- or mock-infected MT4 cells were incubated for five days in the presence of various concentrations of the inhibitor. At the end of the incubation period, all HIV-infected cells have been killed by the replicating virus in the control cultures in the absence of any inhibitor. Cell viability is measured by measuring the concentration of MTT, a yellow, water soluble tetrazolium dye that is converted to a purple, water insoluble formazan in the mitochondria of living cells only. Upon solubilization of the resulting formazan crystals with isopropanol, the absorbance of the solution is monitored at 540 nm. The values correlate directly to the number of living cells remaining in the culture at the completion of the five day incubation. The inhibitory activity of the compound was monitored on the virus-infected cells and was expressed as EC50 and EC90. These values represent the amount of the compound required to protect 50% and 90%, respectively, of the cells from the cytopathogenic effect of the virus. The toxicity of the compound was measured on the mock-infected cells and was expressed as CC50, which represents the concentration of compound required to inhibit the growth of the cells by 50%. The selectivity index (SI) (ratio CC50/EC50) is an indication of the selectivity of the anti-HIV activity of the inhibitor.

In experiment [2] the test system is virus strain S (R13080). The experiment is described as follows: microbe, parasite or virus in culture. In kind it is cell-based, HIV. Particulars: for EC50: Human immunodeficiency virus 1, MT4, read-out: HIV-AVE-MT4-MTT-R13080-2-002 pEC50, virus strain S (R13080), MT4 cells, MTT (converted); for HIV-AVE-MT4-MTT-R13080-2-002 pEC50: virus strain S (R13080), MT4 cells. As for the experimental part: as §1, with “At the end of the incubation period, all HIV-infected cells have been killed by the replicating virus in the control cultures in the absence of any inhibitor.” left out
(§2) Because of the increasing emergence of drug resistant HIV strains, the present compounds were tested for their potency against clinically isolated HIV strains harboring several mutations.
(§3) As a measure of the broad spectrum activity of the present compounds, the fold resistance (FR) defined as FR=EC50(mutant strain)/EC50(HIV-1 strain LAI).

Experiment [3] concerns virus strain F (R13025). The experiment is described as follows: microbe, parasite or virus in culture. The experiment is classed as cell-based, HIV. Particulars: for EC50: Human immunodeficiency virus 1, MT4, read-out: HIV-AVE-MT4-MTT-R13025-2-002 pEC50, virus strain F (R13025), MT4 cells, MTT (converted); for HIV-AVE-MT4-MTT-R13025-2-002 pEC50: virus strain F (R13025), MT4 cells. The procedure: as §1, with “At the end of the incubation period, all HIV-infected cells have been killed by the replicating virus in the control cultures in the absence of any inhibitor.” left out
as §2, §3

`Cc1cccc(C)c1OCC(=O)N[C@@H](Cc1ccccc1)[C@H](O)CN(CC(C)C)S(=O)(=O)c1ccc2nc(NC(=O)C3CC(=O)N(Cc4ccco4)C3)sc2c1` (stereo partly drawn) [Compound 114]: the EC50 in experiment [1] was 20.4 nM; in experiment [2] it was 141 nM; in experiment [3], 33.9 nM.

For the compound `Cc1cccc(C)c1OCC(=O)N[C@@H](Cc1ccccc1)[C@H](O)CN(CC(C)C)S(=O)(=O)c1ccc2nc(N(C)CCN3CCCC3)sc2c1` [Compound 115], the EC50 in experiment [1] is 759 nM; in experiment [2], 10000 nM; in experiment [3], 6170 nM.

With `COc1cc(C(=O)Nc2nc3ccc(S(=O)(=O)N(CC(C)C)C[C@@H](O)[C@H](Cc4ccccc4)NC(=O)COc4c(C)cccc4C)cc3s2)cc(OC)c1O` [Compound 116], the EC50 in experiment [1] was 31.6 nM; in experiment [2], 43.7 nM; in experiment [3], 32.4 nM.

Regarding `Cc1cccc(C)c1OCC(=O)N[C@@H](Cc1ccccc1)[C@H](O)CN(CC(C)C)S(=O)(=O)c1ccc2nc(NC(=O)c3cccc(O)c3C)sc2c1` [Compound 117], the EC50 is 47.9 nM in experiment [1], 191 nM in experiment [2] and 35.5 nM in experiment [3].

For `CC(=O)NCCNc1nc2ccc(S(=O)(=O)N(CC(C)C)C[C@@H](O)[C@H](Cc3ccccc3)NC(=O)OC(C)(C)C)cc2s1` [Compound 121], the EC50 in experiment [1] is 20.9 nM; in experiment [2] it was 10000 nM; in experiment [3], 2820 nM.

Regarding `Cc1cccc(C)c1OCC(=O)N[C@@H](Cc1ccccc1)[C@H](O)CN(CC(C)C)S(=O)(=O)c1ccc2nc(NC(=O)c3ccncc3)sc2c1` [Compound 125], the EC50 in experiment [1] was 6.31 nM; in experiment [2], 145 nM; in experiment [3] it was 26.9 nM.

Consider `CC(C)CN(C[C@@H](O)[C@H](Cc1ccccc1)NC(=O)OC(C)(C)C)S(=O)(=O)c1ccc2nc(NCCN3CCCC3)sc2c1` [Compound 126], for which the values for the EC50 in experiment [1], in experiment [2] and in experiment [3] were 49 nM, 10000 nM and 3160 nM, respectively.

On to `Cc1cccc(C)c1OCC(=O)N[C@@H](Cc1ccccc1)[C@H](O)CN(CC(C)C)S(=O)(=O)c1ccc2nc(NC(=O)C3CCN(C)CC3)sc2c1` [Compound 127], for which the EC50 was 16.6 nM in experiment [1], 135 nM in experiment [2] and 31.6 nM in experiment [3].

As to `Cc1cccc(C)c1OCC(=O)N[C@@H](Cc1ccccc1)[C@H](O)CN(CC(C)C)S(=O)(=O)c1ccc2nc(NC(=O)C3CCCN(C)C3)sc2c1` (stereo partly drawn) [Compound 128], the EC50 was 5.89 nM in experiment [1], 56.2 nM in experiment [2] and 19.1 nM in experiment [3].

For the compound `Cc1cccc(C)c1OCC(=O)N[C@@H](Cc1ccccc1)[C@H](O)CN(CC(C)C)S(=O)(=O)c1ccc2nc(NCc3ccncc3)sc2c1` [Compound 131], the EC50 in experiment [1] is 46.8 nM; in experiment [2], 1050 nM; in experiment [3] it was 832 nM.

Consider `CC(=O)NCCNc1nc2ccc(S(=O)(=O)N(CC(C)C)C[C@@H](O)[C@H](Cc3ccccc3)NC(=O)COc3c(C)cccc3C)cc2s1` [Compound 133], for which the EC50 in experiment [1] was 21.4 nM; in experiment [2], 158 nM; in experiment [3], 33.9 nM.

Regarding `Cc1cccc(C)c1OCC(=O)N[C@@H](Cc1ccccc1)[C@H](O)CN(CC(C)C)S(=O)(=O)c1ccc2nc(N3CCCC3C(=O)O)sc2c1` (stereo partly drawn) [Compound 139], the EC50 in experiment [1] was 2090 nM; in experiment [2] it was 10000 nM; in experiment [3] it was 3090 nM.

As for `CC(C)CN(C[C@@H](O)[C@H](Cc1ccccc1)NC(=O)O[C@H]1CO[C@H]2OCC[C@H]21)S(=O)(=O)c1ccc2nc(N(C)CCCN(C)C)sc2c1` [Compound 141], the “HIV-AVE-MT4-MTT-IIIB-2-002 pEC50” value in experiment [1] turned out to be 7.83. For the same compound, the “HIV-AVE-MT4-MTT-R13080-2-002 pEC50” value in experiment [2] is 6.02. Further, the “HIV-AVE-MT4-MTT-R13025-2-002 pEC50” value in experiment [3] was found to be 6.49.

As to `COC(=O)CCNc1nc2ccc(S(=O)(=O)N(CC(C)C)C[C@@H](O)[C@H](Cc3ccccc3)NC(=O)OC(C)(C)C)cc2s1` [Compound 143], the EC50 in experiment [1] is 74.1 nM; in experiment [2] it was 10000 nM; in experiment [3] it was 10000 nM.

On to `Cc1cccc(C)c1OCC(=O)Nc1nc2ccc(S(=O)(=O)N(CC(C)C)C[C@@H](O)[C@H](Cc3ccccc3)NC(=O)COc3c(C)cccc3C)cc2s1` [Compound 145], for which the values for the EC50 in experiment [1], in experiment [2] and in experiment [3] were 12.6 nM, 145 nM and 39.8 nM, respectively.

Regarding `CC(C)CN(C[C@@H](O)[C@H](Cc1ccccc1)NC(=O)OC1CCSC1)S(=O)(=O)c1ccc2nc(NCCN(C)C)sc2c1` (stereo partly drawn) [Compound 146], the figures for the EC50 in experiment [1], in experiment [2] and in experiment [3] were 9.55 nM, 1000 nM and 302 nM, respectively.

Take `CNCCNc1nc2ccc(S(=O)(=O)N(CC(C)C)C[C@@H](O)[C@H](Cc3ccccc3)NC(=O)OCc3cncs3)cc2s1` [Compound 150]: the EC50 in experiment [1] is 42.7 nM; in experiment [2], 661 nM; in experiment [3], 162 nM.

Take `CC(C)CN(C[C@@H](O)[C@H](Cc1ccccc1)NC(=O)OCc1cncs1)S(=O)(=O)c1ccc2nc(N3CCN(C)C3=O)sc2c1` [Compound 151]: the values for the EC50 in experiment [1], in experiment [2] and in experiment [3] were 107 nM, 2690 nM and 813 nM, respectively.

Regarding `CC(C)CN(C[C@@H](O)[C@H](Cc1ccccc1)NC(=O)OCc1cncs1)S(=O)(=O)c1ccc2nc(N(C)C(=O)c3cc(ON)cc(ON)c3)sc2c1` [Compound 152], the EC50 is 33.1 nM in experiment [1], 1740 nM in experiment [2] and 562 nM in experiment [3].

In the case of `CC(C)CN(C[C@@H](O)[C@H](Cc1ccccc1)NC(=O)OCc1cncs1)S(=O)(=O)c1ccc2nc(N(C)C(=O)c3cccnc3)sc2c1` [Compound 153], the EC50 in experiment [1] is 7.41 nM; in experiment [2], 339 nM; in experiment [3], 45.7 nM.

Take `CC(C)CN(C[C@@H](O)[C@H](Cc1ccccc1)NC(=O)OCc1cncs1)S(=O)(=O)c1ccc2nc(N(C)C(=O)c3ccccn3)sc2c1` [Compound 154]: the EC50 in experiment [1] is 5.5 nM; in experiment [2] it was 372 nM; in experiment [3] it was 38 nM.

On to `CC(C)CN(C[C@@H](O)[C@H](Cc1ccccc1)NC(=O)OCc1cncs1)S(=O)(=O)c1ccc2nc(NC(=O)CN3CCNCC3)sc2c1` [Compound 155], for which the EC50 in experiment [1] was 42.7 nM; in experiment [3] it was 24.5 nM. The “HIV-AVE-MT4-MTT-R13080-2-002 pEC50” value in experiment [2] amounted to 7.49.

For the compound `CC(C)CN(C[C@@H](O)[C@H](Cc1ccccc1)NC(=O)OCc1cncs1)S(=O)(=O)c1ccc2nc(NC(=O)CN3CCN(C)CC3)sc2c1` [Compound 156], the EC50 in experiment [1] was 7.24 nM; in experiment [2], 27.5 nM. Besides, the “HIV-AVE-MT4-MTT-R13025-2-002 pEC50” value in experiment [3] worked out at 8.27.

As to `CC(C)CN(C[C@@H](O)[C@H](Cc1ccccc1)NC(=O)OCc1cncs1)S(=O)(=O)c1ccc2nc(NC(=O)CN3CCNCC3)sc2c1` [Compound 157], the “HIV-AVE-MT4-MTT-IIIB-2-002 pEC50” value in experiment [1] is on record as 7.54. Besides, the “HIV-AVE-MT4-MTT-R13080-2-002 pEC50” value in experiment [2] came out at 6.85. The “HIV-AVE-MT4-MTT-R13025-2-002 pEC50” value in experiment [3] stood at 7.5.

As for `CC(C)CN(C[C@@H](O)[C@H](Cc1ccccc1)NC(=O)OCc1cncs1)S(=O)(=O)c1ccc2nc(NC(=O)CN3CCOCC3)sc2c1` [Compound 158], the figures for the EC50 in experiment [1], in experiment [2] and in experiment [3] were 3.31 nM, 30.2 nM and 7.94 nM, respectively.

On to `CC(C)CN(C[C@@H](O)[C@H](Cc1ccccc1)NC(=O)OCc1cncs1)S(=O)(=O)c1ccc2nc(NC(=O)CN3CCN(C)CC3)sc2c1` [Compound 159], for which the “HIV-AVE-MT4-MTT-IIIB-2-002 pEC50” value in experiment [1] came to 8.1. For the same compound, in experiment [2], the “HIV-AVE-MT4-MTT-R13080-2-002 pEC50” value turned out to be 7.46. The “HIV-AVE-MT4-MTT-R13025-2-002 pEC50” value in experiment [3] turned out to be 7.78.

`CC(C)CN(C[C@@H](O)[C@H](Cc1ccccc1)NC(=O)OCc1cncs1)S(=O)(=O)c1ccc2nc(C(C)C(=O)CCCC(=O)O)sc2c1` (stereo partly drawn) [Compound 160]: the EC50 in experiment [1] was 51.3 nM; in experiment [2], 2450 nM; in experiment [3] it was 479 nM.

Regarding `CC(C)CN(C[C@@H](O)[C@H](Cc1ccccc1)NC(=O)OCc1cncs1)S(=O)(=O)c1ccc2nc(NC(=O)C3CCC(=O)N3)sc2c1` (stereo partly drawn) [Compound 161], the results for the EC50 in experiment [1], in experiment [2] and in experiment [3] were 9.12 nM, 33.9 nM and 17.4 nM, respectively.
